The record followed here is US10479780B2, “Aminopyrazole derivatives” (Chugai Seiyaku Kabushiki Kaisha, priority 2015, dated 2019).

Read-outs that look alike come from different tables or passages of the source.

Holding throughout (assay type): biochemical
One test has as its target T1, human Lck enzyme (Homo sapiens, UniProt P06239).
T1 construct: purchased Carna Biosciences, Inc. 08-170
The experiment in a line: Lck enzyme inhibitory activity (time-resolved fluorometry, biotinylated peptide phosphorylation). The note with it: read-out: LCK_IC50. A digest of the protocol:
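Readout pairs a europium cryptate-labelled anti-phosphotyrosine antibody with XL665-streptavidin, measured by time-resolved fluorescence. IC50 derived from percent inhibition against untreated controls.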

A further test concerns the target T2, human Yes1 enzyme (Homo sapiens, UniProt P07947).
T2 construct: made in house
The experiment in a line: Yes1 enzyme inhibitory activity (time-resolved fluorometry, biotinylated peptide phosphorylation). The following applies: read-out: YES_IC50. A digest of the protocol: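 Inhibition was expressed against a compound-free control to give IC50, using TR-FRET read-out (Eu-cryptate anti-pTyr antibody, streptavidin-XL665).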

A further test concerns the target T3, human Src enzyme (Homo sapiens, UniProt P12931).
T3 construct: purchased Carna Biosciences, Inc. 08-173
Kind of test: Src enzyme inhibitory activity (time-resolved fluorometry, biotinylated peptide phosphorylation). The following applies: read-out: SRC_IC50. In short, it runs like this:
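Compounds were tested for blocking tyrosine phosphorylation of a biotinylated peptide substrate by recombinant human Src. Phosphorylated product was quantified by time-resolved fluorometry using europium cryptate and XL665 conjugates, and IC50 was calculated against the compound-free control.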

The mark [1] stands for this setting: biotinylated peptide phosphorylation.

T2 sequence (P07947 whole entry): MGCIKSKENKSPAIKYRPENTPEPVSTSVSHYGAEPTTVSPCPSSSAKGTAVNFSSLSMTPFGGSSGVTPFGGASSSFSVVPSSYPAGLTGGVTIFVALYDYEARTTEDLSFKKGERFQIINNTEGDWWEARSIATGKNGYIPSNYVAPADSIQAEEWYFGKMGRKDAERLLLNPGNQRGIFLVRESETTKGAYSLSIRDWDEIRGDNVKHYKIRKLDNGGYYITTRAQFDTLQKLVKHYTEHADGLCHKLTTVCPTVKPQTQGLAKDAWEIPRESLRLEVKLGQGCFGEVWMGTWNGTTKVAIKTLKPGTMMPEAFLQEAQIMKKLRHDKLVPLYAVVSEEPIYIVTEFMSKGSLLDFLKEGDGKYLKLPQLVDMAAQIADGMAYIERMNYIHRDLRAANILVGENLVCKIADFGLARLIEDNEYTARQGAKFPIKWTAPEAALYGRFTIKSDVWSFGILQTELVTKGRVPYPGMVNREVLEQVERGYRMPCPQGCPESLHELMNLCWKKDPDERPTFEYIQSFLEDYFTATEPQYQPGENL
T1 sequence (P06239 whole entry): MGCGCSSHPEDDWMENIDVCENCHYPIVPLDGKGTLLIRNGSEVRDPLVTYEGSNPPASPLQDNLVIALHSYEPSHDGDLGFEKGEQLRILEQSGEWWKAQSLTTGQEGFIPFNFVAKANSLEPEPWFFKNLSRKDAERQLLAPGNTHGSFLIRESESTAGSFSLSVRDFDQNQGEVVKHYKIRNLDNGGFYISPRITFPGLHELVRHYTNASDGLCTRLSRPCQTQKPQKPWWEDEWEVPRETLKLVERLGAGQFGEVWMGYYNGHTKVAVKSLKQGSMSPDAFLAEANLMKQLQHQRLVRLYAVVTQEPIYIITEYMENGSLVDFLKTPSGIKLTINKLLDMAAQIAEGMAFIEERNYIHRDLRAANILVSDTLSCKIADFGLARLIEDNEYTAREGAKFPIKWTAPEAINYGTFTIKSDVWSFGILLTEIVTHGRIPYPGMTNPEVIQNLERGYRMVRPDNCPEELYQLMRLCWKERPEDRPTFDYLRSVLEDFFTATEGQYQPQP
T3 sequence (P12931 whole entry): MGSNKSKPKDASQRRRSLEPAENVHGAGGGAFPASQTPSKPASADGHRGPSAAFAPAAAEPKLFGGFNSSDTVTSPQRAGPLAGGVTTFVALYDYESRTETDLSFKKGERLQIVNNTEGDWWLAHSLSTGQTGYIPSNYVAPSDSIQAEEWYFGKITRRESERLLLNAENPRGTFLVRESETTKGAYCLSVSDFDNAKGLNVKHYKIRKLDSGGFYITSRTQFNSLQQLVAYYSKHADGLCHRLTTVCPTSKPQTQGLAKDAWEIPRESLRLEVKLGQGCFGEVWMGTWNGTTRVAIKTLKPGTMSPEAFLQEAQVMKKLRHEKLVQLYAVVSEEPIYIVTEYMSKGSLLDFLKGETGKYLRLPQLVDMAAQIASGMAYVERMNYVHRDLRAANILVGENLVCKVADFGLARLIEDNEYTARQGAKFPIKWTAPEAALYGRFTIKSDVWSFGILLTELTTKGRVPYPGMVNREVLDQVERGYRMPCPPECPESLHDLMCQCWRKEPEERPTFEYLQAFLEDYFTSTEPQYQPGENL

Regarding `Cc1cc(Oc2cc(F)ccc2F)cc(F)c1-n1ncc(C(=O)c2cc3cc(F)c(NS(C)(=O)=O)cc3[nH]2)c1N` [Example 4-7-007, N-[2-[5-amino-1-[4-(2,5-difluorophenoxy)-2-fluoro-6-methylphenyl]pyrazole-4-carbonyl]-5-fluoro-1H-indol-6-yl]methanesulfonamide], the IC50 at human Lck enzyme (setting [1]) stood at 0.041 µM; at human Yes1 enzyme (setting [1]), 0.002 µM; on human Src enzyme (setting [1]), 0.19 µM.
For the compound `Cc1cc(-n2ncc(C(=O)c3cc4cc(OC[C@H](O)CO)c(NS(C)(=O)=O)cc4[nH]3)c2N)ccc1Oc1ccccc1F` [Example 5-1-242, (R)—N-(2-(5-amino-1-(4-(2-fluorophenoxy)-3-methylphenyl)-1H-pyrazole-4-carbonyl)-5-(2,3-dihydroxypropoxy)-1H-indol-6-yl)methanesulfonamide], the IC50 on human Lck enzyme was 0.16 µM; on human Yes1 enzyme it was 0.0019 µM; on human Src enzyme it was 0.5 µM.
In the case of `Cc1cc(Oc2ccccc2F)ccc1-n1ncc(C(=O)c2cc3cc(OCCN4CCOCC4)c(N4CCCS4(=O)=O)cc3[nH]2)c1N` [Example 4-25-012, [5-amino-1-[4-(2-fluorophenoxy)-2-methylphenyl]pyrazol-4-yl]-[6-(1,1-dioxo-1,2-thiazolidin-2-yl)-5-(2-morpholin-4-ylethoxy)-1H-indol-2-yl]methanone], the IC50 turned out to be 0.0021 µM at human Lck enzyme (setting [1]), 0.00035 µM on human Yes1 enzyme (setting [1]) and 0.003 µM at human Src enzyme (setting [1]).
On to `Cc1cc(Oc2c(F)cccc2F)ncc1-n1ncc(C(=O)c2cc3cc(F)c(N4C(=O)NC(C)(C(F)(F)F)C4=O)cc3[nH]2)c1N` (stereo not drawn) [Example 5-1-370, 3-[2-[5-amino-1-[6-(2,6-difluorophenoxy)-4-methylpyridin-3-yl]pyrazole-4-carbonyl]-5-fluoro-1H-indol-6-yl]-5-methyl-5-(trifluoromethyl)imidazolidine-2,4-dione], for which the IC50 on human Lck enzyme came to 0.027 µM; at human Yes1 enzyme, 0.0083 µM; at human Src enzyme, 0.15 µM.
In the same order, the values of `Cc1cc(Oc2ccccc2F)ccc1-n1ncc(C(=O)c2cc3cc(C4CC4)c(NS(=O)(=O)C4CCOCC4)cc3[nH]2)c1N` [Example 5-1-397, N-[2-[5-amino-1-[4-(2-fluorophenoxy)-2-methylphenyl]pyrazole-4-carbonyl]-5-cyclopropyl-1H-indol-6-yl]oxane-4-sulfonamide] are 0.031 µM, 0.0018 µM and 0.09 µM.
In the same order, the values of `Cc1cc2cc(C(=O)c3cnn(-c4cnc(Oc5c(F)cccc5F)cc4C)c3N)[nH]c2cc1NS(=O)(=O)C1CCOCC1` [Example 5-1-269, N-[2-[5-amino-1-[6-(2,6-difluorophenoxy)-4-methylpyridin-3-yl]pyrazole-4-carbonyl]-5-methyl-1H-indol-6-yl]oxane-4-sulfonamide] are 0.023 µM, 0.002 µM and 0.11 µM.
In the case of `Cc1cc(Oc2cccc(F)c2F)ncc1-n1ncc(C(=O)c2cc3cc(F)c(NS(=O)(=O)C4CC4)cc3[nH]2)c1N` [Example 4-2-045, N-[2-[5-amino-1-[6-(2,3-difluorophenoxy)-4-methylpyridin-3-yl]pyrazole-4-carbonyl]-5-fluoro-1H-indol-6-yl]cyclopropanesulfonamide], the IC50 at human Lck enzyme (setting [1]) was 0.089 µM; on human Yes1 enzyme (setting [1]) it was 0.0049 µM; on human Src enzyme (setting [1]), 0.23 µM.
`Nc1c(C(=O)c2cc3cc(F)c(NS(=O)(=O)C4CC4)cc3[nH]2)cnn1-c1c(Cl)cc(Oc2ccccc2F)cc1Cl` [Example 5-1-025, N-[2-[5-amino-1-[2,6-dichloro-4-(2-fluorophenoxy)phenyl]pyrazole-4-carbonyl]-5-fluoro-1H-indol-6-yl]cyclopropanesulfonamide]: the IC50 on human Lck enzyme came out at 0.27 µM; at human Yes1 enzyme, 0.02 µM; on human Src enzyme it was 0.73 µM.
In the same order, the values of `Cc1cc(Oc2ccccc2F)ccc1-n1ncc(C(=O)c2cc3cc(OCC(F)F)c(N4C(=O)[C@@H]5C[C@H](NS(=O)(=O)Cc6ccccc6)CN5C4=O)cc3[nH]2)c1N` [Example 5-1-275, N-[(6S,7aS)-2-[2-[5-amino-1-[4-(2-fluorophenoxy)-2-methylphenyl]pyrazole-4-carbonyl]-5-(2,2-difluoroethoxy)-1H-indol-6-yl]-1,3-dioxo-5,6,7,7a-tetrahydropyrrolo[1,2-c]imidazol-6-yl]-1-phenylmethanesulfonamide] are 0.007 µM, 0.00064 µM and 0.019 µM.
Take `Cc1cc(Oc2ccccc2F)cc(F)c1-n1ncc(C(=O)c2cc3cc(OC(F)F)c(N4CCN(S(C)(=O)=O)CC4)cc3[nH]2)c1N` [Example 4-23-003, [5-amino-1-[2-fluoro-4-(2-fluorophenoxy)-6-methylphenyl]pyrazol-4-yl]-[5-(difluoromethoxy)-6-(4-methylsulfonylpiperazin-1-yl)-1H-indol-2-yl]methanone]: the results for the IC50 on human Lck enzyme (setting [1]), at human Yes1 enzyme (setting [1]) and on human Src enzyme (setting [1]) were 0.021 µM, 0.01 µM and 0.062 µM, respectively.
Take `Cc1cc(Oc2ccccc2F)ccc1-n1ncc(C(=O)c2cc3cc(OCC(F)F)c(N4C(=O)[C@@H]5C[C@H](NC(=O)OCC6c7ccccc7-c7ccccc76)CN5C4=O)cc3[nH]2)c1N` [Example 5-1-253, 9H-fluoren-9-ylmethyl N-[(6S,7aS)-2-[2-[5-amino-1-[4-(2-fluorophenoxy)-2-methylphenyl]pyrazole-4-carbonyl]-5-(2,2-difluoroethoxy)-1H-indol-6-yl]-1,3-dioxo-5,6,7,7a-tetrahydropyrrolo[1,2-c]imidazol-6-yl] carbamate]: the IC50 came to 0.046 µM on human Lck enzyme, 0.00033 µM at human Yes1 enzyme and 0.023 µM on human Src enzyme.
`COCCNS(=O)(=O)Nc1cc2[nH]c(C(=O)c3cnn(-c4ccc(Oc5ccccc5F)cc4C)c3N)cc2cc1F` [Example 4-5-007, [5-amino-1-[4-(2-fluorophenoxy)-2-methylphenyl]pyrazol-4-yl]-[5-fluoro-6-(2-methoxyethylsulfamoylamino)-1H-indol-2-yl]methanone]: the IC50 on human Lck enzyme (setting [1]) came out at 0.018 µM; at human Yes1 enzyme (setting [1]), 0.0005 µM; at human Src enzyme (setting [1]) it was 0.033 µM.
`Cc1cc(Oc2c(F)cccc2F)ncc1-n1ncc(C(=O)c2cc3cc(N4CCOCC4)c(Br)cc3[nH]2)c1N` [Example 5-1-155, [5-amino-1-[6-(2,6-difluorophenoxy)-4-methylpyridin-3-yl]pyrazol-4-yl]-(6-bromo-5-morpholin-4-yl-1H-indol-2-yl)methanone]: the figures for the IC50 on human Lck enzyme, on human Yes1 enzyme and at human Src enzyme were 0.012 µM, 0.0016 µM and 0.022 µM, respectively.
For `Cc1cc(Oc2ccccc2F)ccc1-n1ncc(C(=O)c2cc3cc(OCC(F)F)c(NC4COC4)cc3[nH]2)c1N` [Example 4-23-016, [5-amino-1-[4-(2-fluorophenoxy)-2-methylphenyl]pyrazol-4-yl]-[5-(2,2-difluoroethoxy)-6-(oxetan-3-ylamino)-1H-indol-2-yl]methanone], the IC50 worked out at 0.0054 µM at human Lck enzyme (setting [1]), 0.00094 µM at human Yes1 enzyme (setting [1]) and 0.021 µM on human Src enzyme (setting [1]).
With `Cc1cc(-n2ncc(C(=O)c3cc4cc(N5CCOCC5)c(N5CCN(S(C)(=O)=O)CC5)cc4[nH]3)c2N)ccc1Oc1ccccc1F` [Example 5-1-158, [5-amino-1-[4-(2-fluorophenoxy)-3-methylphenyl]pyrazol-4-yl]-[6-(4-methylsulfonylpiperazin-1-yl)-5-morpholin-4-yl-1H-indol-2-yl]methanone], the results for the IC50 at human Lck enzyme, at human Yes1 enzyme and on human Src enzyme were 0.042 µM, 0.0009 µM and 0.076 µM, respectively.
Taken in the same sequence, the figures for `Cc1cc(Oc2ccccc2F)ncc1-n1ncc(C(=O)c2cc3cc(F)c(N4C(=O)NC(C)(C)C4=O)cc3[nH]2)c1N` [Example 5-1-379, 3-[2-[5-amino-1-[6-(2-fluorophenoxy)-4-methylpyridin-3-yl]pyrazole-4-carbonyl]-5-fluoro-1H-indol-6-yl]-5,5-dimethylimidazolidine-2,4-dione] were 0.011 µM, 0.0045 µM and 0.061 µM.
Taken in the same sequence, the figures for `Cc1cc2cc(C(=O)c3cnn(-c4c(C)cc(Oc5ccccc5F)cc4F)c3N)[nH]c2cc1NS(=O)(=O)CC(=O)NC(C)C` [Example 5-1-089, 2-[[2-[5-amino-1-[2-fluoro-4-(2-fluorophenoxy)-6-methylphenyl]pyrazole-4-carbonyl]-5-methyl-1H-indol-6-yl]sulfamoyl]-N-propan-2-ylacetamide] were 0.0089 µM, 0.0062 µM and 0.077 µM.
In the same order, the values of `Cc1cc(-n2ncc(C(=O)c3cc4cc(OC5CCN(C(C)C)CC5)c(N5C(=O)N[C@@H](C)C5=O)cc4[nH]3)c2N)ccc1Oc1ccccc1F` [Example 5-1-287, (5S)-3-[2-[5-amino-1-[4-(2-fluorophenoxy)-3-methylphenyl]pyrazole-4-carbonyl]-5-(1-propan-2-ylpiperidin-4-yl)oxy-1H-indol-6-yl]-5-methylimidazolidine-2.4-dione] are 0.017 µM, 0.001 µM and 0.35 µM.
As for `Cc1cc(Oc2ccccc2F)cc(F)c1-n1ncc(C(=O)c2cc3cc(OCC(F)F)c(NS(=O)(=O)C4CC4)cc3[nH]2)c1N` [Example 4-24-024, N-[2-[5-amino-1-[2-fluoro-4-(2-fluorophenoxy)-6-methylphenyl]pyrazole-4-carbonyl]-5-(2,2-difluoroethoxy)-1H-indol-6-yl]cyclopropanesulfonamide], the IC50 on human Lck enzyme (setting [1]) came to 0.046 µM; at human Yes1 enzyme (setting [1]), 0.0033 µM; at human Src enzyme (setting [1]), 0.13 µM.
